Columns and labels:
Test in all cases: relative viability vs DMSO control (72 h) (fraction); higher = more viable cells
[1] = system: SW684
Procedure, shortened: (§1)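 Sarcoma cell lines were seeded in 384-well plates at densities set to reach 80–90% confluence. After 24 h, 2.5 µl of serially diluted compound was added (source plates 10 mM to 0.0002 mM), and plates were held 72 h at 37 °C, 5% CO2, with 0.1% DMSO vehicle and a 5 µM positive control. Relative viability came from ATPLite readings as percent growth, averaged over up to triplicate wells. Data were rescaled so full viability equals 1 and none equals 0.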

[2] = system: A204
Procedure, shortened: as §1

[3] = system: SK-ES-1
Procedure, shortened: as §1

[4] = system: G401
Procedure, shortened: as §1

[5] = system: SK-LMS-1
Procedure, shortened: as §1

[6] = system: HS729
Procedure, shortened: as §1

[7] = system: SW872
Procedure, shortened: as §1

[8] = system: MES-SA
Procedure, shortened: as §1

[9] = system: SYO-1
Procedure, shortened: as §1

[10] = system: SW1353
Procedure, shortened: as §1

[11] = system: SW982
Procedure, shortened: as §1

[12] = system: KHOS-240S
Procedure, shortened: as §1

COc1cc2ncnc(Nc3cccc(Cl)c3F)c2cc1OC(=O)N1CCN(C)C[C@H]1C [AZD-3759]
Details | relative viability
[1], 0.00017 µM | 1.14
[1], 0.00051 µM | 1.16
[1], 0.00152 µM | 1.16
[1], 0.00457 µM | 1.13
[1], 0.01372 µM | 1.15
[1], 0.04115 µM | 1.12
[1], 0.1235 µM | 1.11
[1], 0.3704 µM | 1.14
[1], 1.111 µM | 1.16
[1], 3.333 µM | 1.1
[1], 10 µM | 1.05
[2], 0.00017 µM | 1.051
[2], 0.00051 µM | 1.1
[2], 0.00152 µM | 1.09
[2], 0.00457 µM | 1.08
[2], 0.01372 µM | 1.05
[2], 0.04115 µM | 1.08
[2], 0.1235 µM | 1.04
[2], 0.3704 µM | 1.04
[2], 1.111 µM | 1.03
[2], 3.333 µM | 0.954
[2], 10 µM | 0.883
[3], 0.00017 µM | 1.09
[3], 0.00051 µM | 0.999
[3], 0.00152 µM | 1.06
[3], 0.00457 µM | 1.01
[3], 0.01372 µM | 1.06
[3], 0.04115 µM | 1.06
[3], 0.1235 µM | 0.978
[3], 0.3704 µM | 0.999
[3], 1.111 µM | 1.02
[3], 3.333 µM | 0.908
[3], 10 µM | 0.83
[4], 0.00017 µM | 1.03
[4], 0.00051 µM | 1.06
[4], 0.00152 µM | 1.04
[4], 0.00457 µM | 1.01
[4], 0.01372 µM | 1.02
[4], 0.04115 µM | 1.02
[4], 0.1235 µM | 1.04
[4], 0.3704 µM | 1.04
[4], 1.111 µM | 1
[4], 3.333 µM | 0.985
[4], 10 µM | 0.939
[5], 0.00017 µM | 1.14
[5], 0.00051 µM | 1.12
[5], 0.00152 µM | 1.08
[5], 0.00457 µM | 1.09
[5], 0.01372 µM | 1.09
[5], 0.04115 µM | 1.09
[5], 0.1235 µM | 1.09
[5], 0.3704 µM | 1.088
[5], 1.111 µM | 1.07
[5], 3.333 µM | 1.02
[5], 10 µM | 1.05
[6], 0.00017 µM | 1.05
[6], 0.00051 µM | 0.958
[6], 0.00152 µM | 0.934
[6], 0.00457 µM | 0.971
[6], 0.01372 µM | 0.966
[6], 0.04115 µM | 0.875
[6], 0.1235 µM | 0.94
[6], 0.3704 µM | 0.878
[6], 1.111 µM | 0.856
[6], 3.333 µM | 0.812
[6], 10 µM | 0.781
[7], 0.00017 µM | 1.07
[7], 0.00051 µM | 1.1
[7], 0.00152 µM | 1.06
[7], 0.00457 µM | 1.058
[7], 0.01372 µM | 1.032
[7], 0.04115 µM | 1.05
[7], 0.1235 µM | 1.04
[7], 0.3704 µM | 1.02
[7], 1.111 µM | 1.04
[7], 3.333 µM | 0.9635
[7], 10 µM | 0.828
[8], 0.00017 µM | 0.938
[8], 0.00051 µM | 0.921
[8], 0.00152 µM | 0.953
[8], 0.00457 µM | 0.917
[8], 0.01372 µM | 0.94
[8], 0.04115 µM | 0.929
[8], 0.1235 µM | 0.921
[8], 0.3704 µM | 0.891
[8], 1.111 µM | 0.902
[8], 3.333 µM | 0.8425
[8], 10 µM | 0.777
[9], 0.00017 µM | 1.03
[9], 0.00051 µM | 0.995
[9], 0.00152 µM | 0.987
[9], 0.00457 µM | 0.977
[9], 0.01372 µM | 0.951
[9], 0.04115 µM | 0.947
[9], 0.1235 µM | 0.891
[9], 0.3704 µM | 0.896
[9], 1.111 µM | 0.851
[9], 3.333 µM | 0.783
[9], 10 µM | 0.614
[10], 0.00017 µM | 1.02
[10], 0.00051 µM | 1.02
[10], 0.00152 µM | 1.04
[10], 0.00457 µM | 0.998
[10], 0.01372 µM | 0.964
[10], 0.04115 µM | 0.983
[10], 0.1235 µM | 0.979
[10], 0.3704 µM | 0.868
[10], 1.111 µM | 0.877
[10], 3.333 µM | 0.8196
[10], 10 µM | 0.769
[11], 0.00017 µM | 1.06
[11], 0.00051 µM | 1.02
[11], 0.00152 µM | 1.03
[11], 0.00457 µM | 1.06
[11], 0.01372 µM | 1.07
[11], 0.04115 µM | 1.04
[11], 0.1235 µM | 1.07
[11], 0.3704 µM | 1.07
[11], 1.111 µM | 1.01
[11], 3.333 µM | 0.945
[11], 10 µM | 0.889
[12], 0.00017 µM | 1.04
[12], 0.00051 µM | 1.06
[12], 0.00152 µM | 1.06
[12], 0.00457 µM | 1.06
[12], 0.01372 µM | 1.05
[12], 0.04115 µM | 1.04
[12], 0.1235 µM | 1.05
[12], 0.3704 µM | 1.04
[12], 1.111 µM | 0.9537
[12], 3.333 µM | 0.976
[12], 10 µM | 0.878
